Data on 37 molecules can be found in patent publication US8846947B2, “Benzimidazoles and related analogs as sirtuin modulators” (GlaxoSmithKline LLC, priority 2008, dated 2014).

Read-outs that look alike come from different tables or passages of the source. Bounds are passed on as bounds.

For this assay, the target named is T1, SIRT1 (Homo sapiens, UniProt Q96EB6).
T1 sequence (Q96EB6 1-747): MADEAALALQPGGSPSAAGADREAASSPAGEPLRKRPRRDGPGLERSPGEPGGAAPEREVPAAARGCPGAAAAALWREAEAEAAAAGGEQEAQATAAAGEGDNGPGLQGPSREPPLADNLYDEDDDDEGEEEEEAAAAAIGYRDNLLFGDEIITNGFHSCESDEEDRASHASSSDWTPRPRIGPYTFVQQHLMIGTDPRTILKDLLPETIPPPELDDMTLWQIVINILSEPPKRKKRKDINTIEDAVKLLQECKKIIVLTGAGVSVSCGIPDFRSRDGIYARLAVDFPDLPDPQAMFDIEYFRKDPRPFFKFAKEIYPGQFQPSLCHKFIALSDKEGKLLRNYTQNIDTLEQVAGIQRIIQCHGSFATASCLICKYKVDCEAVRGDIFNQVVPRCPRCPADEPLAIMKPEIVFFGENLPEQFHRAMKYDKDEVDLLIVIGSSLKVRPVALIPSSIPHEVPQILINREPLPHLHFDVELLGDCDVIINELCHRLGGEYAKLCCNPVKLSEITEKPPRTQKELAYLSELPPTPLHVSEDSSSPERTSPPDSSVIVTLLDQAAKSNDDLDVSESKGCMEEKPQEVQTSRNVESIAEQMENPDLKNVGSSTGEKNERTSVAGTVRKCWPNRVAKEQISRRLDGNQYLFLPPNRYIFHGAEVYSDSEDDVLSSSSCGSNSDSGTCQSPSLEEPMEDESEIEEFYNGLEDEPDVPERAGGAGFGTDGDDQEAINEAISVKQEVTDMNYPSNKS
The assay can be described thus: Mass spectrometry based SIRT1 deacetylase activation assay (acetylated p53-derived peptide substrate). The format is biochemical.

Setting [1] is: 0.5 μM peptide substrate, 120 μM βNAD+, 10 nM SIRT1, 25 minutes at 25° C.
Setting [2] is: 0.5 μM peptide substrate, 120 μM βNAD+, 10 nM SIRT1, 25 min at 25° C.
Setting [3] is: 0.5 μM peptide substrate, 120 μM βNAD+, 10 nM SIRT1, 25 min at 25° C., read-out: EC1.5.

As to `O=C(Nc1ccc(CN2CCCC2)cc1)c1cccc2[nH]c(-c3ccc(CN4CCCC4)cc3C(F)(F)F)nc12` [Compound 869, 2-(4-(pyrrolidin-1-ylmethyl)-2-(trifluoromethyl)phenyl)-N-(4-(pyrrolidin-1-ylmethyl)phenyl)-1H-benzo[d]imidazole-4-carboxamide], under setting [1], the EC1.5 entry is given as “A (EC1.5<1.0 uM)” and the “Fold Act. (percent maximum fold activation)” value was “A (Fold activation >200%)”.

Consider `O=C(Nc1ccc(CN2CCNCC2)nc1)c1cccc2[nH]c(-c3ccccc3C(F)(F)F)nc12` [Compound 728], for which, under setting [1], the EC1.5 entry is given as “A (EC1.5<1.0 uM)” and the “Fold Act. (percent maximum fold activation)” value is listed as “A (Fold activation >200%)”.

Regarding `O=C(Nc1nccs1)c1cccc2[nH]c(-c3ccc(F)c(C(F)(F)F)c3)nc12` [Compound 216], the EC1.5 result is listed as “C (EC1.5 >25 uM)” and the “Fold Act. (percent maximum fold activation)” value is listed as “B (Fold Activation <200%)”.

On to `Cc1nc(C)c(-c2nc3c(C(=O)Nc4cccc(CN5CCOCC5)n4)cccc3[nH]2)s1` [Compound 847], for which, under setting [1], the EC1.5 result is on record as “A (EC1.5<1.0 uM)” and the “Fold Act. (percent maximum fold activation)” value was “A (Fold activation >200%)”.

Turning to `Cc1cnc(NC(=O)c2cccc3[nH]c(-c4ccc(F)cc4C(F)F)nc23)s1` [Compound 560], the “Fold Act. (percent maximum fold activation)” value under setting [2] is reported as “A (Fold activation >200%)”. Also, the EC1.5 under setting [3] was less than 1000 nM.

Turning to `O=C(NC1CCOCC1)c1cccc2[nH]c(-c3cccc(C(F)(F)F)c3)nc12` [Compound 275], the EC1.5 result is “B (EC1.5 1-25 uM)” and the “Fold Act. (percent maximum fold activation)” value is recorded as “A (Fold activation >200%)”.

On to `O=C(Nc1cccc(CN2CCOCC2)n1)c1cccc2[nH]c(-c3cc(F)ccc3F)nc12` [Compound 855], for which, under setting [1], the EC1.5 result was “A (EC1.5<1.0 uM)” and the “Fold Act. (percent maximum fold activation)” value was “A (Fold activation >200%)”.

As to `O=C(Nc1ccccn1)c1cccc2[nH]c(-c3cc(N4CCCC4)ccc3C(F)(F)F)nc12` [Compound 688], under setting [1], the EC1.5 result is recorded as “C (EC1.5 >25 uM)” and the “Fold Act. (percent maximum fold activation)” value was “B (Fold Activation <200%)”.

Turning to `Cc1nc(C)c(-c2nc3c(C(=O)Nc4nc(CN5CCOCC5)cs4)cccc3[nH]2)s1` [Compound 848], under setting [1], the EC1.5 result is reported as “A (EC1.5<1.0 uM)” and the “Fold Act. (percent maximum fold activation)” value is “A (Fold activation >200%)”.

In the case of `Cc1cc(NC(=O)c2cccc3[nH]c(-c4cccc(C(F)(F)F)c4)nc23)no1` [Compound 299], the EC1.5 result is “B (EC1.5 1-25 uM)” and the “Fold Act. (percent maximum fold activation)” value is “A (Fold activation >200%)”.

`O=C(Nc1cccnn1)c1cncc2[nH]c(-c3cc(F)ccc3C(F)(F)F)nc12` [Compound 656]: under setting [1], the EC1.5 result was “A (EC1.5<1.0 uM)” and the “Fold Act. (percent maximum fold activation)” value was “A (Fold activation >200%)”.

In the case of `O=C(Nc1nccs1)c1cccc2[nH]c(-c3ccc(F)cc3OCCN3CCOCC3)nc12` [Compound 503], the “Fold Act. (percent maximum fold activation)” value under setting [2] is “B (Fold Activation <200%)”. In addition, under setting [3], the EC1.5 is 1000 to 25000 nM.

`O=C(Nc1cccc(OC[C@@H](O)CO)c1)c1cccc2[nH]c(-c3ccc(Cl)cc3C(F)F)nc12` [Compound 699]: under setting [1], the EC1.5 result is “A (EC1.5<1.0 uM)” and the “Fold Act. (percent maximum fold activation)” value is recorded as “A (Fold activation >200%)”.

As for `O=C(Nc1ccccn1)c1cccc2[nH]c(-c3ccc(OCCN4CCOCC4)cc3C(F)F)nc12` [Compound 723, 2-(2-(difluoromethyl)-4-(2-morpholinoethoxy)phenyl)-N-(pyridin-2-yl)-1H-benzo[d]imidazole-7-carboxamide], under setting [1], the EC1.5 result is “A (EC1.5<1.0 uM)” and the “Fold Act. (percent maximum fold activation)” value is listed as “A (Fold activation >200%)”.

Consider `O=C(Nc1ccc(OCC(O)CO)cc1)c1cccc2[nH]c(-c3ccc(Cl)cc3C(F)(F)F)nc12` (centres unmarked) [Compound 493], for which the “Fold Act. (percent maximum fold activation)” value under setting [2] is listed as “A (Fold activation >200%)”. Also, the EC1.5 under setting [3] is less than 1000 nM.

As to `O=C(Nc1nccs1)c1cc(N2CCOCC2)cc2[nH]c(-c3ccc(Cl)cc3C(F)(F)F)nc12` [Compound 640], under setting [1], the EC1.5 result is “A (EC1.5<1.0 uM)” and the “Fold Act. (percent maximum fold activation)” value is “A (Fold activation >200%)”.

`O=C(Nc1nccs1)c1cc(F)cc2nc(-c3ccc(Cl)cc3C(F)F)[nH]c12` [Compound 821]: under setting [1], the EC1.5 entry is listed as “A (EC1.5<1.0 uM)” and the “Fold Act. (percent maximum fold activation)” value is reported as “A (Fold activation >200%)”.

With `O=C(Nc1nccs1)c1cccc2[nH]c(-c3ccc(N4CC[C@H](F)C4)cc3C(F)F)nc12` [Compound 731], under setting [1], the EC1.5 result was “A (EC1.5<1.0 uM)” and the “Fold Act. (percent maximum fold activation)” value is “A (Fold activation >200%)”.

As to `Cc1cnc(NC(=O)c2cncc3[nH]c(-c4cc(F)ccc4C(F)(F)F)nc23)s1` [Compound 657], under setting [1], the EC1.5 entry was “A (EC1.5<1.0 uM)” and the “Fold Act. (percent maximum fold activation)” value is given as “A (Fold activation >200%)”.

Consider `O=C(Nc1nccs1)c1cccc2[nH]c(-c3ccc(-c4nnn[nH]4)cc3)nc12` [Compound 348], for which the EC1.5 result was “A (EC1.5<1.0 uM)” and the “Fold Act. (percent maximum fold activation)” value is listed as “A (Fold activation >200%)”.

On to `CS(=O)(=O)c1cccc(-c2nc3c(C(=O)Nc4cccnc4)cccc3[nH]2)c1` [Compound 404], for which, under setting [2], the “Fold Act. (percent maximum fold activation)” value was “A (Fold activation >200%)”. The EC1.5 under setting [3] is less than 1000 nM.

On to `Cc1nc(NC(=O)c2cccc3[nH]c(-c4ccccc4C(F)(F)F)nc23)sc1C` [Compound 344], for which the EC1.5 entry is “A (EC1.5<1.0 uM)” and the “Fold Act. (percent maximum fold activation)” value is “A (Fold activation >200%)”.

In the case of `Cc1nc(NC(=O)c2cccc3[nH]c(-c4cnc5c(c4)OCCN5C)nc23)sc1C` [Compound 458], the “Fold Act. (percent maximum fold activation)” value under setting [2] is reported as “A (Fold activation >200%)”. Further, under setting [3], the EC1.5 was less than 1000 nM.

On to `CCCN1CCc2cc(-c3nc4c(C(=O)Nc5nccs5)cccc4[nH]3)ccc21` [Compound 444], for which, under setting [2], the “Fold Act. (percent maximum fold activation)” value is reported as “B (Fold Activation <200%)”. For the same molecule, the EC1.5 under setting [3] is greater than 25000 nM.

As to `Cc1cnc(NC(=O)c2cccc3[nH]c(-c4cccc(C(F)(F)F)c4)nc23)s1` [Compound 260], the EC1.5 entry was “B (EC1.5 1-25 uM)” and the “Fold Act. (percent maximum fold activation)” value is “B (Fold Activation <200%)”.

Take `O=C(Nc1nccs1)c1cccc2[nH]c(-c3cccc(-c4nnn[nH]4)c3)nc12` [Compound 360]: the EC1.5 entry is recorded as “A (EC1.5<1.0 uM)” and the “Fold Act. (percent maximum fold activation)” value is “A (Fold activation >200%)”.

In the case of `O=C(Nc1cccc2[nH]c(-c3ccc(Cl)cc3C(F)(F)F)nc12)c1cscn1` [Compound 416], the “Fold Act. (percent maximum fold activation)” value under setting [2] is given as “B (Fold Activation <200%)”. For the same molecule, the EC1.5 under setting [3] lay in the range of 1000 to 25000 nM.

In the case of `CS(=O)(=O)c1ccc(F)cc1-c1nc2c(C(=O)Nc3ccccn3)cccc2[nH]1` [Compound 658], under setting [1], the EC1.5 result is given as “A (EC1.5<1.0 uM)” and the “Fold Act. (percent maximum fold activation)” value was “A (Fold activation >200%)”.

Consider `Cc1cnc(NC(=O)c2cc(F)cc3nc(-c4ccccc4C(F)F)[nH]c23)s1` [Compound 833], for which, under setting [1], the EC1.5 entry is “A (EC1.5<1.0 uM)” and the “Fold Act. (percent maximum fold activation)” value was “A (Fold activation >200%)”.

Regarding `O=C(Nc1ccccn1)c1cccc2[nH]c(-c3cc(F)ccc3OCCN3CCOCC3)nc12` [Compound 584], the “Fold Act. (percent maximum fold activation)” value under setting [2] is “A (Fold activation >200%)”. Moreover, under setting [3], the EC1.5 fell in the range of 1000 to 25000 nM.

In the case of `Cc1cnc(NC(=O)c2cccc3[nH]c(-c4cc(F)ccc4C(F)F)nc23)s1` [Compound 512], the “Fold Act. (percent maximum fold activation)” value under setting [2] is on record as “A (Fold activation >200%)”. Moreover, the EC1.5 under setting [3] is less than 1000 nM.

With `O=C(Nc1cccc(OCC(O)CO)c1)c1cccc2[nH]c(-c3ccc(Cl)cc3C(F)(F)F)nc12` (centres unmarked) [Compound 479], the “Fold Act. (percent maximum fold activation)” value under setting [2] is “A (Fold activation >200%)”. Also, under setting [3], the EC1.5 is less than 1000 nM.

`O=C(Nc1ccc(CN2CCCC2)nc1)c1cccc2[nH]c(-c3ccccc3C(F)(F)F)nc12` [Compound 683]: under setting [1], the EC1.5 entry was “A (EC1.5<1.0 uM)” and the “Fold Act. (percent maximum fold activation)” value is recorded as “A (Fold activation >200%)”.

On to `O=C(Nc1nccs1)c1cccc2[nH]c(-c3cc(F)cc(Cl)c3)nc12` [Compound 220], for which the EC1.5 entry is recorded as “B (EC1.5 1-25 uM)” and the “Fold Act. (percent maximum fold activation)” value is on record as “A (Fold activation >200%)”.

Regarding `Cc1cc(NC(=O)c2cccc3[nH]c(-c4cnc5c(c4)OCCN5C)nc23)n(C)n1` [Compound 523], the “Fold Act. (percent maximum fold activation)” value under setting [2] is on record as “B (Fold Activation <200%)”. In addition, the EC1.5 under setting [3] was greater than 25000 nM.

On to `Cc1nc(NC(=O)c2cccc3[nH]c(-c4cc(F)ccc4C(F)(F)F)nc23)sc1C` [Compound 377], for which the EC1.5 result is on record as “A (EC1.5<1.0 uM)” and the “Fold Act. (percent maximum fold activation)” value is reported as “A (Fold activation >200%)”.

As to `O=C(Nc1cccc(CN2CCOCC2)n1)c1cccc2[nH]c(-c3cc(F)ccc3C(F)(F)F)nc12` [Compound 677], under setting [1], the EC1.5 result is on record as “A (EC1.5<1.0 uM)” and the “Fold Act. (percent maximum fold activation)” value is on record as “A (Fold activation >200%)”.
